Source: patent US9510598B2, “Nitrogen-containing heterocyclic compounds for plant disease control” (BAYER CROPSCIENCE AG, priority 2012, dated 2016)
Several values for one entry are separate records, joined by “and”; a condition that tells them apart may be missing. Equal values may be shown once. Read-outs that look alike come from different tables or passages of the source.

Experiments:
[1] = Table 2, formula (II); method [a]: pH 2.7, 0.1% formic acid in water / acetonitrile gradient
Protocol: Measurement of log P values was performed according EEC directive 79/831 Annex V.A8 by HPLC (High Performance Liquid Chromatography) on reversed phase columns with the following methods: ^[a]

Septoria tritici = experiment: In vivo preventive test on Septoria tritici (leaf spot on wheat); conditions: 500 ppm; wheat plants sprayed 24 hours before contamination; grading 21 to 28 days after contamination vs control plants
How it was run: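 Scipion wheat at 1-leaf stage sprayed with compound, controls receiving acetone/tween/DMSO/water vehicle; 24 h later leaves inoculated with Septoria tritici spores (500 000 spores per ml). Efficacy (%) graded versus control plants 21 to 28 days after contamination.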

[2] = type: physicochemical; conditions: HPLC on reversed phase columns, linear gradient 10% to 95% acetonitrile
Botrytis cinerea = experiment: In vivo preventive test on Botrytis cinerea (grey mould); conditions: 500 ppm; gherkin plants sprayed 24 hours before contamination; grading 4-5 days after contamination vs control plants
How it was run: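 Gherkin plants ("Vert petit de Paris") sprayed with compound at Z11 cotyledon stage, then inoculated 24 h later with B. cinerea spores (50 000/ml) in PDB/fructose/NH4NO3/KH2PO4 nutrient solution. Incubated at 17 °C, 80% RH; % efficacy versus solvent-treated controls graded 4–5 days after contamination.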

Sphaerotheca fuliginea = experiment: In vivo preventive test on Sphaerotheca fuliginea (powdery mildew on cucurbits); conditions: 500 ppm; gherkin plants sprayed 24 hours before contamination; grading 12 days after contamination vs control plants
Protocol: Gherkin plants (“Vert petit de Paris” variety), sown in starter cups on a 50/50 peat soil-pozzolana substrate and grown at 24° C., are treated at the Z11 cotyledon stage by spraying with the active ingredient prepared as described above. Plants, used as controls, are treated with the mixture of acetone/tween/DMSO/water not containing the active material. After 24 hours, the plants are contaminated by spraying the cotyledons with an aqueous suspension of Sphaerotheca fuliginea spores (100 000 spores per ml). The spores are collected from infected plants. […] Grading (% of efficacy) is carried out 12 days after the contamination, in comparison with the control plants.

[3] = method [a]: pH 2.7, 0.1% formic acid in water / acetonitrile
[4] = method [a]: pH 2.7, 0.1% formic acid in water and acetonitrile

Row | Compound | Log P [1] | % of efficacy (protection) (Septoria tritici) [%] | % of efficacy (protection) (Botrytis cinerea) [%] | % of efficacy (protection) (Sphaerotheca fuliginea) [%] | also measured
1 | COC(=O)C1(C)ON=C(c2ccc3ncc(Br)cc3c2)C1C (mixture of isomers) [II-15] | 2.94[a] | – | – | – | –
2 | COC(=O)C1(C(C)O)CC(c2ccc3ncc(Br)cc3c2)=NO1 (mixture of isomers) [II-19] | 2.18[a] | – | – | – | –
3 | CC(O)C1(C(=O)O)CC(c2ccc3ncc(Br)cc3c2)=NO1 (mixture of isomers) [II-77] | 1.60 and 1.65 | – | – | – | –
4 | CC1(C(=O)O)CC(c2cc3cc(Br)cnc3c(F)c2F)=NO1 (racemic) [II-02] | 2.25[a] | – | – | – | –
5 | CC1(C(=O)O)CC(c2ccc3ncc(Br)cc3c2)=NO1 (racemic) [II-03] | 1.94[a] | – | – | – | –
6 | COC1(C(=O)O)CC(c2ccc3ncc(Br)cc3c2)=NO1 (racemic) [II-04] | 1.73[a] | – | – | – | –
7 | COc1c(C2=NOC(C)(C(=O)O)C2)cc2cccnc2c1F (racemic) [II-05] | 1.39[a] | – | – | – | –
8 | O=C(O)C1(CCl)CC(c2ccc3ncc(Br)cc3c2)=NO1 (racemic) [II-06] | 2.11[a] | – | – | – | –
9 | CC1(C(=O)O)CC(c2cc3cc(Br)cnc3cc2F)=NO1 (racemic) [II-07] | 2.14[a] | – | – | – | –
10 | O=C(O)C1(C(F)(F)F)CC(c2ccc3ncc(Br)cc3c2)=NO1 (racemic) [II-08] | 1.85[a] | – | – | – | –
11 | C#Cc1cnc2ccc(C3=NOC(C)(C(=O)O)C3)cc2c1 (racemic) [II-10] | 1.71[a] | – | – | – | –
12 | O=C(O)C1(CBr)CC(c2ccc3ncc(Br)cc3c2)=NO1 (racemic) [II-11] | 2.19[a] | – | – | – | –
13 | O=C(O)C1(c2ccccc2)CC(c2ccc3ncc(Br)cc3c2)=NO1 (racemic) [II-12] | 2.76[a] | – | – | – | –
14 | O=C(O)C1(C(F)(F)F)CC(c2cc3cc(Br)cnc3c(F)c2F)=NO1 (racemic) [II-13] | 2.01[a] | – | – | – | –
15 | COC(=O)C1(C(F)(F)F)CC(c2ccc3ncc(Br)cc3c2)=NO1 (racemic) [II-14] | 3.4[a] | – | – | – | –
16 | COC(=O)C1(CCl)CC(c2ccc3ncc(Br)cc3c2)=NO1 (racemic) [II-16] | 3.03[a] | – | – | – | –
17 | COC(=O)C1(c2ccccc2)CC(c2ccc3ncc(Br)cc3c2)=NO1 (racemic) [II-17] | 2.69[a] | – | – | – | –
18 | COC(=O)C1(C2CC2)CC(c2ccc3ncc(Br)cc3c2)=NO1 (racemic) [II-18] | 3.27[a] | – | – | – | –
19 | CCOC(=O)C1(C)CC(c2ccc3ncccc3c2)=NO1 (racemic) [II-20] | 1.6[a] | – | – | – | –

Row | Compound | Log P [1] | % of efficacy (protection) (Septoria tritici) [%] | % of efficacy (protection) (Botrytis cinerea) [%] | % of efficacy (protection) (Sphaerotheca fuliginea) [%] | also measured
20 | COC(=O)C1(C(F)(F)F)CC(c2cc3cc(Br)cnc3c(F)c2F)=NO1 (racemic) [II-22] | 3.72[a] | – | – | – | –
21 | COC(=O)C1(OC)CC(c2cc3cc(Br)cnc3c(F)c2F)=NO1 (racemic) [II-24] | 3.04[a] | – | – | – | –
22 | COC(=O)C1(C)CC(c2cc(C)c3ncc(Br)cc3c2)=NO1 (stereo not drawn) [II80] | 3.55[a] | – | – | – | –
23 | COC(=O)C1(OC)CC(c2ccc3ncc(Br)cc3c2)=NO1 (stereo not drawn) [II-25] | 3.29[a] | – | – | – | –
24 | COC(=O)C1(C)CC(c2ccc3ncc(C#C[Si](C)(C)C)cc3c2)=NO1 (stereo not drawn) [II-26] | 4.31[a] | – | – | – | –
25 | COC(=O)C1(C)CC(c2cc3cc(Br)cnc3c(F)c2F)=NO1 (stereo not drawn) [II-27] | 3.06[a] | – | – | – | –
26 | COC(=O)C1(C)CC(c2cc3cccnc3c(F)c2F)=NO1 (stereo not drawn) [II-29] | 2.11[a] | – | – | – | –
27 | COC(=O)C1(C)CC(c2ccc3ncc(I)cc3c2)=NO1 (stereo not drawn) [II-30] | 2.71[a] | – | – | – | –
28 | COC(=O)C12CCCC1C(c1ccc3ncc(Br)cc3c1)=NO2 (stereo not drawn) [II-31] | 3.23[a] | – | – | – | –
29 | COC(=O)C12OCCCC1C(c1ccc3ncc(Br)cc3c1)=NO2 (stereo not drawn) [II-32] | 2.80[a] | – | – | – | –
30 | COC(=O)C1(C)CC(c2ccc3ncc(Br)cc3c2)=NO1 (stereo not drawn) [II-33] | 2.69[a] | – | – | – | –
31 | COC(=O)C1(C)CC(c2cc3cc(Br)cnc3cc2F)=NO1 (stereo not drawn) [II-34] | 2.94[a] | – | – | – | –
32 | C#Cc1cnc2ccc(C3=NOC(C)(C(=O)OC)C3)cc2c1 (stereo not drawn) [II-35] | 2.35[a] | – | – | – | –
33 | O=C(O)C1(CF)CC(c2ccc3ncc(Br)cc3c2)=NO1 (stereo not drawn) [II-36] | 1.94[a] | – | – | – | –
34 | O=C(O)C1(C2CC2)CC(c2ccc3ncc(Br)cc3c2)=NO1 (stereo not drawn) [II-37] | 2.43[a] | – | – | – | –
35 | COc1nc2ccc(C3=NOC(C)(C(=O)O)C3)cc2cc1Br (stereo not drawn) [II-38] | 2.64[a] | – | – | – | –
36 | COC(=O)C1(C(C)=NO)CC(c2ccc3ncc(Br)cc3c2)=NO1 (stereo not drawn) [II-39] | 2.58[a] | – | – | – | –
37 | COC(=O)C1(C(C)=O)CC(c2ccc3ncc(Br)cc3c2)=NO1 (stereo not drawn) [II-40] | 2.94[a] | – | – | – | –
38 | COC(=O)C1ON=C(c2ccc3ncc(Br)cc3c2)C12CC2 (stereo not drawn) [II-41] | 2.71[a] | – | – | – | –

Row | Compound | Log P [1] | % of efficacy (protection) (Septoria tritici) [%] | % of efficacy (protection) (Botrytis cinerea) [%] | % of efficacy (protection) (Sphaerotheca fuliginea) [%] | also measured
39 | CCOC(=O)C1(C)ON=C(c2ccc3ncc(Br)cc3c2)C1CC (stereo not drawn) [II-42] | 3.74[a] | – | – | – | –
40 | C#Cc1cnc2c(C)cc(C3=NOC(C)(C(=O)NCc4cnc(C)cn4)C3)cc2c1 (stereo not drawn) [compound 535] | – | 100 | 100 | 100 | log P [2, 3]: 2.50[a]
41 | Cc1cc(C2=NOC(C)(C(=O)NCC3COC(C)(C)O3)C2)cc2cc(Br)cnc12 (stereo not drawn) [compound 538] | – | 100 | 100 | 100 | log P [2, 3]: 3.39[a]
42 | CC1(C)OCC(CNC(=O)C2(C)CC(c3cc(Cl)c4ncc(Br)cc4c3)=NO2)O1 (stereo not drawn) [compound 540] | – | 92 | 100 | 94 | log P [2, 3]: 3.17[a]
43 | CC(C)NC(=O)C1(C)CC(c2cc(Cl)c3ncc(Br)cc3c2)=NO1 (stereo not drawn) [compound 541] | – | 100 | 100 | 98 | log P [2, 3]: 3.29[a]
44 | C#Cc1cnc2c(Cl)cc(C3=NOC(C)(C(=O)NC(C)C)C3)cc2c1 (stereo not drawn) [compound 543] | – | 100 | 100 | 100 | log P [2, 3]: 2.96[a]
45 | C#Cc1cnc2c(Cl)cc(C3=NOC(C)(C(=O)NC4CCC4)C3)cc2c1 (stereo not drawn) [compound 544] | – | 100 | 100 | 98 | log P [2, 3]: 3.15[a]
46 | C#Cc1cnc2c(Cl)cc(C3=NOC(C)(C(=O)NCc4cnc(C)cn4)C3)cc2c1 (stereo not drawn) [compound 558] | – | 100 | 97 | 85 | log P [2, 3]: 2.39[a]
47 | C#Cc1cnc2c(Cl)cc(C3=NOC(C)(C(=O)NCC4COC(C)(C)O4)C3)cc2c1 (stereo not drawn) [compound 559] | – | 100 | 95 | 85 | log P [2, 3]: 2.84[a]
48 | COC1(C(=O)NCC2COC(C)(C)O2)CC(c2cc(Cl)c3ncc(Br)cc3c2)=NO1 (stereo not drawn) [compound 568] | – | 100 | 99 | 94 | log P [2, 3]: 3.11[a]
49 | COC1(C(=O)NC(C)C)CC(c2cc(Cl)c3ncc(Br)cc3c2)=NO1 (stereo not drawn) [compound 569] | – | 100 | 100 | 100 | log P [2, 3]: 3.15[a]
50 | CCCn1cc(CNC(=O)C2(OC)CC(c3cc(C)c4ncc(Br)cc4c3)=NO2)c(C)n1 (stereo not drawn) [compound 595] | – | 100 | 100 | 100 | log P [2, 3]: 3.27[a]
51 | COC1(C(=O)NCc2cnc(C)cn2)CC(c2cc(C)c3ncc(Br)cc3c2)=NO1 (stereo not drawn) [compound 596] | – | 100 | 99 | 83 | log P [2, 3]: 2.78[a]
52 | C#Cc1cnc2ccc(C3=NOC(C(=O)NCc4cn(CC)nc4C)(C(F)F)C3)cc2c1 (stereo not drawn) [compound 613] | – | 79 | 100 | 100 | log P [2, 3]: 2.39[a]
53 | C#Cc1cnc2ccc(C3=NOC(C(=O)NCC4COC(C)(C)O4)(C(F)F)C3)cc2c1 (stereo not drawn) [compound 614] | – | 97 | 100 | 92 | log P [2, 3]: 2.64[a]
54 | CCn1cc(CNC(=O)C2(C(F)F)CC(c3ccc4ncc(Br)cc4c3)=NO2)c(C)n1 (stereo not drawn) [compound 621] | – | 97 | 83 | 97 | log P [2, 3]: 2.64[a]
55 | C#Cc1cnc2ccc(C3=NOC(C=C)(C(=O)NC(C)C)C3)cc2c1 (stereo not drawn) [compound 727] | – | 100 | 98 | 98 | log P [2, 4]: 2.73[a]
56 | C=CC1(C(=O)NCC2COC(C)(C)O2)CC(c2ccc3ncc(I)cc3c2)=NO1 (stereo not drawn) [compound 729] | – | 100 | 97 | 100 | log P [2, 4]: 3.11[a]
57 | C=CC1(C(=O)NC(C)C)CC(c2ccc3ncc(Br)cc3c2)=NO1 (stereo not drawn) [compound 734] | – | 100 | 95 | 98 | log P [2, 4]: 3.08[a]
